Source: patent US20120184517A1, “TREATMENT OF DISEASES WITH ALTERED SMOOTH MUSCLE CONTRACTILITY” (priority 2009, published 2012)

Columns and labels:
BKCa channel [1] = target: T1, BKCa channel (Homo sapiens, UniProt Q12791); conditions: cited from earlier work
[2] = not told; cited from earlier work
rat stroke models = conditions: in vivo; cited from earlier work
[3] = target: maxi-K potassium channels (Homo sapiens, UniProt Q12791); conditions: 50 nM intracellular Ca2+; cited from earlier work
Sequence of maxi-K potassium channels (Q12791 whole entry): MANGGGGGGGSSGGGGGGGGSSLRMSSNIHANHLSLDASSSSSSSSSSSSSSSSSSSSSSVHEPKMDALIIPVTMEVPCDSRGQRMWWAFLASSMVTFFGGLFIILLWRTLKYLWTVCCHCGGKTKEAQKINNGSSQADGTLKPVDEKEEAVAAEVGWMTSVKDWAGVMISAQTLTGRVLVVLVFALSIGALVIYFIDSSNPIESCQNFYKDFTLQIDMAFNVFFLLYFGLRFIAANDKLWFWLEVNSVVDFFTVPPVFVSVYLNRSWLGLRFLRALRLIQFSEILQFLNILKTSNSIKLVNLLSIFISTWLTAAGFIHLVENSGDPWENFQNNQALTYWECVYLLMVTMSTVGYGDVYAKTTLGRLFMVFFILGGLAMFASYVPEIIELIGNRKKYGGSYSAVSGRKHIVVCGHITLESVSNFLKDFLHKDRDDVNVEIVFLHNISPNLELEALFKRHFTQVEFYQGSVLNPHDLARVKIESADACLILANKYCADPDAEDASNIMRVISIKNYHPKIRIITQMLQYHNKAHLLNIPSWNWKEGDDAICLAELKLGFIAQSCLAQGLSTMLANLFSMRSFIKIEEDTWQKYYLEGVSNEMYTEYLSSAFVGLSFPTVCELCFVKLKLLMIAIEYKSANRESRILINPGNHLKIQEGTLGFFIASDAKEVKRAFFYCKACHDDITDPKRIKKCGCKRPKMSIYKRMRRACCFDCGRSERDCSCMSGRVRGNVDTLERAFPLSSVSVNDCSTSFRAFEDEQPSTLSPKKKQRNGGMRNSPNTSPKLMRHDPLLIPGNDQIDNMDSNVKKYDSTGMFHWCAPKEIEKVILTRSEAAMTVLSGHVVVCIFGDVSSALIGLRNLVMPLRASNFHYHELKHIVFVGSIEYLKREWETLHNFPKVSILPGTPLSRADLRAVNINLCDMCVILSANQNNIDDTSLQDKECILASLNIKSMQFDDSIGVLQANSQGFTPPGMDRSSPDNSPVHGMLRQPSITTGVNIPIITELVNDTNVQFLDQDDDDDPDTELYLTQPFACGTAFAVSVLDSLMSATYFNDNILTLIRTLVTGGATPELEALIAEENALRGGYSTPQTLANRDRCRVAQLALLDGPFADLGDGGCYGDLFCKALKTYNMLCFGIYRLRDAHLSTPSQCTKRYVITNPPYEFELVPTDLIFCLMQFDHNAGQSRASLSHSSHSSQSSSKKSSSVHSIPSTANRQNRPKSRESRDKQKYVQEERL

BKCa channel [4] = target: T1, BKCa channel; conditions: cytoplasmic side; cited from earlier work
BKCa channel (mSlo) = target: T2, BKCa channel (mSlo) (Mus musculus, UniProt Q08460); test: Whole cell patch clamp of HEK293 cells stably transfected with mSlo; format: cell-based, murine
T2 construct: expressed in transfected cells
T2 sequence (Q08460 whole entry): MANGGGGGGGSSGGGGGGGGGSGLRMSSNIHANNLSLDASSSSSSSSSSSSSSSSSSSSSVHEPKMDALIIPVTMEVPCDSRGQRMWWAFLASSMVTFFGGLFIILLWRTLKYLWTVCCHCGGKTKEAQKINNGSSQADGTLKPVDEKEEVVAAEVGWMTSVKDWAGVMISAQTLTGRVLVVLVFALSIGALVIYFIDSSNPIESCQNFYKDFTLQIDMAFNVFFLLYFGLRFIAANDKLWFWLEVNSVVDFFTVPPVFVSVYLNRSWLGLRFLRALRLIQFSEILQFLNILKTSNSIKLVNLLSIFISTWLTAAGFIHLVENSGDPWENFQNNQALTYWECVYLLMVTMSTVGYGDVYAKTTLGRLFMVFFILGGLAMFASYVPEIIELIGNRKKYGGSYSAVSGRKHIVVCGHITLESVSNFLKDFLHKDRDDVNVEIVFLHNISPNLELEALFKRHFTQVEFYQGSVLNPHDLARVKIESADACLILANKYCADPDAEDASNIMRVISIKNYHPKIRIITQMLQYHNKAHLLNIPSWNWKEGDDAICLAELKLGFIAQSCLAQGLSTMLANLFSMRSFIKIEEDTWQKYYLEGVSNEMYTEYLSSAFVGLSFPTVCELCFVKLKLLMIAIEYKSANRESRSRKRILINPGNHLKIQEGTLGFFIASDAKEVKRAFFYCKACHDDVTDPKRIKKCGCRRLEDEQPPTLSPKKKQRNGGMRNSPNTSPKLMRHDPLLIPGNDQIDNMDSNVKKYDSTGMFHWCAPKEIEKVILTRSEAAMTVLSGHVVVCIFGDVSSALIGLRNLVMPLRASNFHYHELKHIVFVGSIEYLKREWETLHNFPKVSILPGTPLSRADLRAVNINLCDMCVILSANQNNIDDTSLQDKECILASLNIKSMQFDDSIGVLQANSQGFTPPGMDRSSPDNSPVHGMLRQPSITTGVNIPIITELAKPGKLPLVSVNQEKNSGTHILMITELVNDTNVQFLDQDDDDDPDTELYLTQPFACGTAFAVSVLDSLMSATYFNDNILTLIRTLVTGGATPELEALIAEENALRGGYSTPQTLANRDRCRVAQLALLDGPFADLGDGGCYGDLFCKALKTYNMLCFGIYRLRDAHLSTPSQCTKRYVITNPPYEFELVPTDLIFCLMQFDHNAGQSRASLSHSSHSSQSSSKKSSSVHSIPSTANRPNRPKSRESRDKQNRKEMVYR
Description: FIGS. 4A and 4B show representative current traces from whole cell patches with 5 mM EGTA in patch pipette. […] Voltage steps are shown at the right of each tracing; note the different maximum voltage steps +200 mV (upper) vs. +120 mV (lower). […] FIG. 4C G-V curves were constructed for indicated conditions utilizing tail analysis (Xia, et al., Multiple regulatory sites in large-conductance calcium-activated potassium channels. Nature, 2002. 418(6900):880-4). Solid lines were fitted with Boltzmann function. […] FIGS. 4D and 4E show experiments studying stable mslo HEK293 cells in whole cell configuration with a pipette solution containing 5 mM EGTA (˜0 free Ca^2+).
Current in the diary plot in FIG. 5B represents maximal current in ramp protocol at +70 mV. Holding potential of ramp was −20 mV, with ramp from −30 mV to +180 mV over 500 ms. The G-V curve in FIG. 5C was generated from the tail analysis as described in FIG. 4.
(§1) Current was monitored with a ramp protocol; holding potential −60 mV, with ramp from −80 mV to +150 mV over 500 ms. […] Analysis was performed using tail analysis with normalization as previously described (Xia, et al., Multiple regulatory sites in large-conductance calcium-activated potassium channels. Nature, 2002. 418(6900):880-4). […] Identification of the BKCa channel was determined by conductance and inhibition by iberiotoxin and TEA. […] Murine femoral arterial rings were isolated and placed in a wire myograph. […] The figures shown are representative of 4 similar experiments. Error bars are standard error of the mean (SEM). Asterisk (*) indicates p<0.001.

2K-1C hypertensive rats = conditions: hypertensive rat model compared to controls; cited from earlier work
[5] = test system: porcine coronary myocytes; conditions: 30 μM; cited from earlier work
WT tracheal rings = test: Isoproterenol-induced relaxation of WT tracheal rings on a myograph; format: cell-based, murine; conditions: pre-incubation with β2-AR antagonist 100 nM
Description: (n=4 each). Asterisk (*) indicates P<0.05 versus vehicle (DMSO). […] Cumulative dose-response curves of WT tracheal rings to isoproterenol in the absence and presence of 100 nM iberiotoxin (IbTX), a specific BK channel inhibitor. Values in graphs are means±standard deviation.
In this experiment, murine tracheal smooth muscle cells were acutely isolated and whole cell patch clamped as previously described (Zakharov, S. et al., (2005) J Biol Chem 280, 30882-30887).
To dissect which (or both) β-AR pathways are responsible for the effects, tracheal rings were pre-incubated with either β1-AR antagonist (CGP 20712A; 100 nM) or a β2-AR antagonist (ICI 118551; 100 nM) or vehicle (DMSO). […] To confirm that the isoproterenol-induced relaxation was dependent upon BK channel-induced hyperpolarization, IbTX, a specific inhibitor of the BK channel, was used.

tracheal rings = test: Isoproterenol-induced relaxation of tracheal rings from PBS- and OVA-sensitized animals; format: cell-based, murine; conditions: no rottlerin
Description: The isoproterenol-induced relaxation of tracheal rings from OVA-sensitized asthmatic animals was also tested. After induction of asthma, tracheal rings were removed and mounted on the myograph. […] At the conclusion of the experiment, each tracheal ring was exposed to methacholine to ensure viability of the ring and equivalent constriction.
After induction of asthma, tracheal rings were removed and mounted on the myograph. […] The ISO-relaxation curve was shifted downward and to the right, with the maximal relaxation response reduced to only ˜25% from more than 60%.

[6] = target: T3, BK currents in tracheal ASM cells (Mus musculus, UniProt Q08460); test: Perforated whole cell voltage clamp of acutely isolated tracheal ASM, outward K+ current; format: cell-based; conditions: 0.5 μM ISO
T3 construct: The effect of ISO on BK currents in acutely isolated tracheal ASM was also determined; endogenous in cells; host or cells: acutely isolated tracheal airway smooth muscle cells
T3 sequence (Q08460 whole entry): as above
T3 sequence (Q8CAE3 whole entry partner): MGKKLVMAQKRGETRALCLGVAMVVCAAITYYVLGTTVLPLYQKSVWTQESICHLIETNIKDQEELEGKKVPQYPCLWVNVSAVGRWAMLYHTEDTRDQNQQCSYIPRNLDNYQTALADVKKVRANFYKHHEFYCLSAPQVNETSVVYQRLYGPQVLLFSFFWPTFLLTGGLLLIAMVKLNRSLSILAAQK
Description: FIG. 23A is a diary plot of current recorded during repetitive stimulation by depolarizing ramps every 5 seconds to +200 mV from a holding potential of −20 mV. ISO and ISO+IbTX exposure are indicated by bars at bottom of plot. Dashed line indicates average control current.
The effect of ISO on BK currents in acutely isolated tracheal ASM was also determined. ASM cells were studied using perforated whole cell voltage clamp. After obtaining access, outward K^+ current was monitored using a 0.5 second ramp, from a holding potential of −20 mV to +200 mV. […] Under the conditions used, the majority of the outward K^+ current is conducted by the BK channel, as shown by IbTX-blockade (FIGS. 23A and 23B).

[7] = target: T4, BKCa channel in porcine coronary artery cells (Sus scrofa, UniProt O18866); conditions: cited from earlier work
T4 construct: host or cells: porcine coronary artery cells
T4 sequence (O18866 whole entry): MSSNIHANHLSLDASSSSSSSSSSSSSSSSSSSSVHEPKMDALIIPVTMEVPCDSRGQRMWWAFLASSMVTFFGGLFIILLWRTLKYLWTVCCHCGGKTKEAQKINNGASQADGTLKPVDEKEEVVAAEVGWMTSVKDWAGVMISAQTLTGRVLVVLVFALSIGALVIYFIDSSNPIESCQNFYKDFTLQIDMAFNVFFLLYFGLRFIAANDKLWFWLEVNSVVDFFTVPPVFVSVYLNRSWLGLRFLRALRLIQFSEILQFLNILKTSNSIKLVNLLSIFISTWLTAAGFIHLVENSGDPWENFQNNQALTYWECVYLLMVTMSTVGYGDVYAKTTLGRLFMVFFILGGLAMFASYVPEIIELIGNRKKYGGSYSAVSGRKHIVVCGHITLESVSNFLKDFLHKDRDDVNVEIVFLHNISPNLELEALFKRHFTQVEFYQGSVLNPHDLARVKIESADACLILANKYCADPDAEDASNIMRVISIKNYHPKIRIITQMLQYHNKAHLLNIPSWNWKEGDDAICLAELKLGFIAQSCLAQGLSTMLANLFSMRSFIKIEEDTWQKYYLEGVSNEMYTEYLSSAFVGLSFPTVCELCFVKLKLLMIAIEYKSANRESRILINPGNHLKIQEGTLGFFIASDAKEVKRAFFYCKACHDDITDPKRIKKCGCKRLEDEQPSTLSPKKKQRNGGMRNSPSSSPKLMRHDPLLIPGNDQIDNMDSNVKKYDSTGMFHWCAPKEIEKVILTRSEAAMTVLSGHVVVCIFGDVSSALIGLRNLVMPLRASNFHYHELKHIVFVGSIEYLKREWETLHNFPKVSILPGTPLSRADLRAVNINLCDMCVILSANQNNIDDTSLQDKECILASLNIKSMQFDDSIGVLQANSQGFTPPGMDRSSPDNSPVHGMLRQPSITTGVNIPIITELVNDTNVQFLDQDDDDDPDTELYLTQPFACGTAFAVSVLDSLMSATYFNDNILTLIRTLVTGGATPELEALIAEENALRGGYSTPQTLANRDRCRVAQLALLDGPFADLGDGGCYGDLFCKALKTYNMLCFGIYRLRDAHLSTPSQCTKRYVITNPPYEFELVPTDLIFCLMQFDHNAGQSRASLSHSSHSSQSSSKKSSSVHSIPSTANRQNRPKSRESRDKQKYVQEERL

[8] = test system: murine femoral arterial rings; format: cell-based
Description: as §1

dilation to forskolin = conditions: cited from earlier work

T1 sequence (Q12791 whole entry): as the sequence (Q12791 whole entry) above

Compound: dehydrosoyasaponin-I [DHS-I]
- BKCa channel activation (BKCa channel [1]): activate BKCa channels
- channel activity with α and β subunits co-expressed (BKCa channel [1]): increases channel activity
- membrane permeability [2]: poor

Compound: COc1ccc(Cl)cc1[C@]1(F)C(=O)Nc2cc(C(F)(F)F)ccc21 [BMS-204352]
- brain infarct size (rat stroke models): reduction in brain infarct size
- effect on current [3]: almost no effect

Compound: C=C[C@]1(C)C=C2CC[C@@]3(O)C(C)(C)CC[C@H](O)[C@]3(C)C2CC1 (some centres unmarked) [Maxikdiol]
- concentration of significant effect (BKCa channel [4]): 3 to 10 µM
- threshold of channel activation (BKCa channel [4]): 1 µM
- membrane permeability [2]: limited

Compound: C[C@@H]1O[C@@H](O[C@H]2[C@H](O[C@H]3[C@H](O[C@H]4CC[C@@]5(C)[C@@H](CC[C@]6(C)[C@@H]5CC=C5[C@@H]7CC(C)(C)C[C@@H](O)[C@]7(C)CC[C@]56C)[C@@]4(C)CO)O[C@H](C(=O)O)[C@@H](O)[C@@H]3O)O[C@H](CO)[C@H](O)[C@@H]2O)[C@H](O)[C@H](O)[C@H]1O [soyasaponin I]
- BKCa channel activation (BKCa channel [1]): activate BKCa channels

Compound: O=c1[nH]c2cc(C(F)(F)F)ccc2n1-c1cc(C(F)(F)F)ccc1O [NS-1619]
- peak K+ current (BKCa channel (mSlo); NS-1619 10 μM extracellular): activated peak K^+ current
- efficacy in mediating vascular relaxation (2K-1C hypertensive rats): diminished
- intracellular Ca2+ concentration [5]: increase intracellular Ca^2+ concentration

Compound: Cc1ccc(OCC(O)C(C)NC(C)C)c2c1CCC2 (centres unmarked) [ICI 118551, reference compound]
- isoproterenol dose-response curve (WT tracheal rings): rightward shift in the dose-response curve

Compound: CC(C)NCC(O)c1ccc(O)c(O)c1 (centres unmarked) [isoproterenol, reference compound]
- maximal relaxation response to isoproterenol (tracheal rings; OVA-sensitized rings): ~25%
- maximal relaxation response to isoproterenol (tracheal rings; control rings): more than 60%
- increase of outward K+ current [6]: more than 50%

Compound: CC1(C)C[C@@H](O)[C@]2(C)CC[C@]3(C)C(=CC[C@@H]4[C@@]5(C)CC[C@H](O[C@@H]6O[C@H](C(=O)O)[C@@H](O)[C@H](O)[C@H]6O[C@@H]6O[C@H](CO)[C@H](O)[C@H](O)[C@H]6O)[C@](C)(CO)[C@@H]5CC[C@]43C)[C@@H]2C1 [soyasaponin III]
- BKCa channel activation (BKCa channel [1]): activate BKCa channels

Compound: O=C(Nc1cccc(C(F)(F)F)c1)Nc1cc(Cl)ccc1O [NS1608]
- effect at higher concentrations ([7]; 50 μM): inhibitory effect
- concentration of maximum activation [7]: 5 to 10 µM
- minimum effective concentration [7]: 0.5 µM

Compound: CC[N+](CC)(CC)CC [TEA, tetraethylammonium, reference compound]
- effect on rottlerin induced BKCa activation (BKCa channel (mSlo)): reversibly inhibited
- effect on the rottlerin mediated effect [8]: inhibited

Compound: Ryanodine
- reduction of dilation to forskolin (dilation to forskolin): 80%
